Assay results taken from patent US20230285514A1, “STAPLED LACTAM CO-AGONISTS OF THE GLUCAGON AND GLP-1 RECEPTORS” (Merck Sharp & Dohme LLC, priority 2019, published 2023).
*1 amine or outer side, *2 acyl side, *3 side chain or, on linkers, in order; H or OH if unused. Where a SMILES comes first, the peptide text is derived from it. Bridges are numbered along the chain shown (N, C = ends). Side-chain parts run from the residue outwards. [ ]: non-standard residue; d: D form. The star is where a group is joined. γGlu = O=C(O)[C@H](CCC(=O)[*:2])N[*:1]; Palmitoyl = CCCCCCCCCCCCCCCC(=O)*; Nle = CCCC[C@H](N)C(=O)O; Aib = CC(C)(N)C(=O)O

How the values were obtained:
[1] = target: T1, human GCGR (Homo sapiens, UniProt P47871); assay: cAMP activity assay, cells expressing human GCGR; assay type: cell-based; conditions: ratio of human GCGR EC50 to human GLP1R EC50
T1 construct: expressed in transfected cells
T1 sequence (P47871 26-477): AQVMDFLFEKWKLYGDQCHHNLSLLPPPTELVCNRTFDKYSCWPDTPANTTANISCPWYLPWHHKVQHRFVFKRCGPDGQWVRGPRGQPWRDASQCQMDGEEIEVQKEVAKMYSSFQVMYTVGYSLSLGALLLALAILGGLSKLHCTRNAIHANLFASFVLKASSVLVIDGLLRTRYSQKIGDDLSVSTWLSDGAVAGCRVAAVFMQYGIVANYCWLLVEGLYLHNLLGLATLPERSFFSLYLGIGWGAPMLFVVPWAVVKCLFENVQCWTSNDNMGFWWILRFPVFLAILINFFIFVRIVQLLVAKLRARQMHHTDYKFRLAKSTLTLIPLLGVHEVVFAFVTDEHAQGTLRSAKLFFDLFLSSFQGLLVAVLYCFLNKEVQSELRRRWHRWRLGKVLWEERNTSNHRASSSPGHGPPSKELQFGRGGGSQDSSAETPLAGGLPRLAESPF
Procedure: (§1) Activity of the peptides at the Glucagon receptor (GCGR) and GLP-1 receptor (GLP1R) was measured in a cAMP activity assay. Peptides were dissolved in 100% DMSO and serially diluted to generate 10 point titrations. The peptide solutions were then transferred into 384-well assay plates (150 nL/well). Assay ready frozen cells expressing human GLP1R or human GCGR were suspended in growth media consisting of DMEM medium (GIBCO), 10% FBS (GIBCO), 1×NEAA(GIBCO), 1×P/S (GIBCO), 10 ug/ml Blasticidin (GIBCO) and 200 μg/mL Hygromycin (GIBCO). […] The cell suspensions (15 μL) were then added to the assay plates containing the peptide solutions (30,000 cells/well for human GCGR; 10,000 cells/well for human GLP1R). […] Production of cAMP was determined using […] kits (DiscoverX) following manufacturer protocol. The plates were incubated for overnight at room temperature in the dark. Luminescence was measured using an EnVision Multilabel plate reader (Perkin Elmer). Native GLP-1 and Glucagon (Bachem) are used as control peptides.

[2] = target: T2, human GLP1R (Homo sapiens, UniProt P43220); assay: cAMP activity assay, cells expressing human GLP1R; assay type: cell-based; conditions: cAMP production, 1 hour, table does not say whether with or without 20% human serum, read-out: GLPIR EC50 human
T2 construct: expressed in transfected cells
T2 sequence (P43220 24-463): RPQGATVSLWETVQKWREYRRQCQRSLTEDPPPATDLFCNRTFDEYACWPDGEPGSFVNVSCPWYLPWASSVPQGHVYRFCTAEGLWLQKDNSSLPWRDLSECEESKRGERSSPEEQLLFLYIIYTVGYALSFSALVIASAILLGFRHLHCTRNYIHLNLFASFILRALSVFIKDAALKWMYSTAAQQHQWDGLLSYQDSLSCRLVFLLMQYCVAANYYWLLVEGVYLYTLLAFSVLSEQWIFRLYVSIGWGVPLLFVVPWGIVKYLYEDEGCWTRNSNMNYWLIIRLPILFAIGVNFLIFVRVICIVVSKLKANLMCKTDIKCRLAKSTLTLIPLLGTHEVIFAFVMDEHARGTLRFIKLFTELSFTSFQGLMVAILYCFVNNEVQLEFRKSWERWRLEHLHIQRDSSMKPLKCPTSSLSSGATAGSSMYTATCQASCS
Procedure: as §1

`CCCCCCCCCCCCCCCC(=O)N[C@@H](CCC(=O)N[C@@H](CCC(=O)NCCCC[C@H](NC(=O)[C@H](CC(=O)O)NC(=O)[C@H](CO)NC(=O)[C@@H](NC(=O)[C@H](Cc1ccccc1)NC(=O)[C@@H](NC(=O)CNC(=O)[C@H](CCC(N)=O)NC(=O)[C@@H](CO)NC(=O)[C@@H](N)Cc1c[nH]cn1)[C@@H](C)O)[C@@H](C)O)C(=O)N[C@@H](CO)C(=O)N[C@@H](CCCCN)C(=O)N[C@@H](Cc1ccc(O)cc1)C(=O)N[C@@H](CC(C)C)C(=O)N[C@@H](CC(=O)O)C(=O)N[C@@H](C)C(=O)N[C@@H](CCCNC(=N)N)C(=O)N[C@@H](C)C(=O)N[C@@H](C)C(=O)N[C@H]1CCCCNC(=O)CC[C@@H](C(=O)N[C@@H](Cc2c[nH]c3ccccc23)C(=O)N[C@@H](CC(C)C)C(=O)N[C@@H](CC(C)C)C(=O)N[C@@H](CC(=O)O)C(=O)N[C@H](C(N)=O)[C@@H](C)O)NC(=O)[C@H](C(C)C)NC(=O)[C@H](Cc2ccccc2)NC(=O)[C@H](CC(=O)O)NC1=O)C(=O)O)C(=O)O` [SEQ ID NO: 11] was tested, and the “hGCGR/hGLPIR (hTone)” value [1] was 0.6 and the EC50 [2] was 0.17 nM.

For `CCCCCCCCCCCCCCCC(=O)N[C@@H](CCC(=O)N[C@@H](CCC(=O)NCCCC[C@H](NC(=O)[C@H](CC(=O)O)NC(=O)[C@H](CO)NC(=O)[C@@H](NC(=O)[C@H](Cc1ccccc1)NC(=O)[C@@H](NC(=O)CNC(=O)[C@H](CCC(N)=O)NC(=O)C(C)(C)NC(=O)[C@@H](N)Cc1c[nH]cn1)[C@@H](C)O)[C@@H](C)O)C(=O)N[C@@H](CO)C(=O)N[C@@H](CCCCN)C(=O)N[C@@H](Cc1ccc(O)cc1)C(=O)N[C@@H](CC(C)C)C(=O)N[C@@H](CC(=O)O)C(=O)N[C@H]1CCCCNC(=O)CC[C@@H](C(=O)N[C@@H](CC(=O)O)C(=O)N[C@@H](Cc2ccccc2)C(=O)N[C@H](C(=O)N[C@@H](CCC(N)=O)C(=O)N[C@@H](Cc2c[nH]c3ccccc23)C(=O)N[C@@H](CC(C)C)C(=O)N[C@@H](CCCC)C(=O)N[C@@H](CC(=O)O)C(=O)N[C@H](C(N)=O)[C@@H](C)O)C(C)C)NC(=O)[C@H](C)NC(=O)[C@H](C)NC(=O)[C@H](CCCNC(=N)N)NC1=O)C(=O)O)C(=O)O` [SEQ ID NO: 14] (H-H[Aib]QGTFTSDK([γGlu-γGlu-Palmitoyl])SKYLDKRAAEDFVQWL[Nle]DT-NH2; lactam 16-20; N-terminus assumed), the “hGCGR/hGLPIR (hTone)” value [1] was 1.41.

With `CCCCCCCCCCCCCCCC(=O)N[C@@H](CCC(=O)N[C@@H](CCC(=O)NCCCC[C@H](NC(=O)[C@H](CC(=O)O)NC(=O)[C@H](CO)NC(=O)[C@@H](NC(=O)[C@H](Cc1ccccc1)NC(=O)[C@@H](NC(=O)CNC(=O)[C@H](CCC(N)=O)NC(=O)C(C)(C)NC(=O)[C@@H](N)Cc1c[nH]cn1)[C@@H](C)O)[C@@H](C)O)C(=O)N[C@@H](CO)C(=O)N[C@@H](CCCCN)C(=O)N[C@@H](Cc1ccc(O)cc1)C(=O)N[C@@H](CC(C)C)C(=O)N[C@@H](CC(=O)O)C(=O)NC(C)(C)C(=O)N[C@@H](CCCNC(=N)N)C(=O)N[C@@H](C)C(=O)N[C@@H](C)C(=O)N[C@H]1CCCCNC(=O)CC[C@@H](C(=O)N[C@@H](Cc2c[nH]c3ccccc23)C(=O)N[C@@H](CC(C)C)C(=O)N[C@@H](CCCC)C(=O)N[C@@H](CC(=O)O)C(=O)N[C@H](C(N)=O)[C@@H](C)O)NC(=O)[C@H](C(C)C)NC(=O)[C@H](Cc2ccccc2)NC(=O)[C@H](CC(=O)O)NC1=O)C(=O)O)C(=O)O` [SEQ ID NO: 15] (H-H[Aib]QGTFTSDK([γGlu-γGlu-Palmitoyl])SKYLD[Aib]RAAKDFVEWL[Nle]DT-NH2; lactam 20-24; N-terminus assumed) the “hGCGR/hGLPIR (hTone)” value [1] was 2.61.

With `CCCCCCCCCCCCCCCC(=O)N[C@@H](CCC(=O)N[C@@H](CCC(=O)NCCCC[C@H](NC(=O)[C@H](CC(=O)O)NC(=O)[C@H](CO)NC(=O)[C@@H](NC(=O)[C@H](Cc1ccccc1)NC(=O)[C@@H](NC(=O)CNC(=O)[C@H](CCC(N)=O)NC(=O)C(C)(C)NC(=O)[C@@H](N)Cc1c[nH]cn1)[C@@H](C)O)[C@@H](C)O)C(=O)N[C@@H](CO)C(=O)N[C@@H](CCCCN)C(=O)N[C@@H](Cc1ccc(O)cc1)C(=O)N[C@@H](CC(C)C)C(=O)N[C@@H](CC(=O)O)C(=O)NC(C)(C)C(=O)N[C@H]1CCCCNC(=O)CC[C@@H](C(=O)N[C@@H](Cc2ccccc2)C(=O)N[C@H](C(=O)N[C@@H](CCC(N)=O)C(=O)N[C@@H](Cc2c[nH]c3ccccc23)C(=O)N[C@@H](CC(C)C)C(=O)N[C@@H](CCCC)C(=O)N[C@@H](CC(=O)O)C(=O)N[C@H](C(N)=O)[C@@H](C)O)C(C)C)NC(=O)[C@H](CCC(N)=O)NC(=O)[C@H](C)NC(=O)[C@H](C)NC1=O)C(=O)O)C(=O)O` [SEQ ID NO: 16] (H-H[Aib]QGTFTSDK([γGlu-γGlu-Palmitoyl])SKYLD[Aib]KAAQEFVQWL[Nle]DT-NH2; lactam 17-21; N-terminus assumed) the “hGCGR/hGLPIR (hTone)” value [1] was 1.25 and the EC50 [2] was 0.17 nM.

`CCCCCCCCCCCCCCCC(=O)N[C@@H](CCC(=O)N[C@@H](CCC(=O)NCCCC[C@H](NC(=O)[C@H](CC(=O)O)NC(=O)[C@H](CO)NC(=O)[C@@H](NC(=O)[C@H](Cc1ccccc1)NC(=O)[C@@H](NC(=O)CNC(=O)[C@H](CCC(N)=O)NC(=O)C(C)(C)NC(=O)[C@@H](N)Cc1c[nH]cn1)[C@@H](C)O)[C@@H](C)O)C(=O)N[C@@H](CO)C(=O)N[C@@H](CCCCN)C(=O)N[C@@H](Cc1ccc(O)cc1)C(=O)N[C@@H](CC(C)C)C(=O)N[C@@H](CC(=O)O)C(=O)NC(C)(C)C(=O)N[C@@H](CCCNC(=N)N)C(=O)N[C@@H](C)C(=O)N[C@@H](C)C(=O)N[C@@H](CCC(N)=O)C(=O)N[C@@H](CC(=O)O)C(=O)N[C@@H](Cc1ccccc1)C(=O)N[C@H](C(=O)N[C@H]1CCCCNC(=O)CC[C@@H](C(=O)N[C@H](C(N)=O)[C@@H](C)O)NC(=O)[C@H](CCCC)NC(=O)[C@H](CC(C)C)NC(=O)[C@H](Cc2c[nH]c3ccccc23)NC1=O)C(C)C)C(=O)O)C(=O)O` [SEQ ID NO: 17] (H-H[Aib]QGTFTSDK([γGlu-γGlu-Palmitoyl])SKYLD[Aib]RAAQDFVKWL[Nle]ET-NH2; lactam 24-28; N-terminus assumed) was tested, and the “hGCGR/hGLPIR (hTone)” value [1] was 1.05.
